Measured values taken from ChEMBL document CHEMBL1201862, “PubChem BioAssay data set” (2004).
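Five compound concentrations were applied to cells in 96-well plates for 48 hours; endpoints were derived by simple linear interpolation of the resulting dose-response curve. The concentration for 50% growth inhibition is given as GI50.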 Calls of active or inactive are those of the source. Cut-off read from the data, not from the text of the source: active = GI50 up to about 1.1 µM and inactive = higher.

What was measured:
Assay in all cases: NCI anticancer screen, dose series, 48 h
NCI-H522 = system: NCI-H522
MDA-MB-231 = system: MDA-MB-231
SF-295 = system: SF-295
SN12C = system: SN12C
Hs-578T = system: Hs-578T
ACHN = system: ACHN
OVCAR-4 = system: OVCAR-4
NCI-H226 = system: NCI-H226
MDA-N = system: MDA-N
NCI/ADR-RES = system: NCI/ADR-RES
OVCAR-3 = system: OVCAR-3
SF-268 = system: SF-268
OVCAR-8 = system: OVCAR-8
SW-620 = system: SW-620
RPMI-8226 = system: RPMI-8226
HT-29 = system: HT-29
SNB-19 = system: SNB-19
CAKI-1 = system: CAKI-1
SF-539 = system: SF-539
KM-20L2 = system: KM-20L2

Measured: GI50

COc1ccc2oc(=O)cc(C)c2c1
inactive: NCI-H522 > 100 µM | MDA-MB-231 > 100 µM | SF-295 > 100 µM | SN12C > 100 µM | Hs-578T > 100 µM | ACHN > 100 µM | OVCAR-4 > 100 µM | NCI-H226 > 100 µM | MDA-N > 100 µM | NCI/ADR-RES > 100 µM | OVCAR-3 > 100 µM | SF-268 > 100 µM | OVCAR-8 > 100 µM | SW-620 > 100 µM | RPMI-8226 > 100 µM | HT-29 > 100 µM | SNB-19 > 100 µM | CAKI-1 > 100 µM | SF-539 > 100 µM

NC(C(=O)OC(=O)c1ccccc1)C(=O)OC(=O)c1ccccc1
inactive: NCI-H522 > 100 µM | MDA-MB-231 > 100 µM | SF-295 > 100 µM | SN12C > 100 µM | Hs-578T 59.3 µM | ACHN > 100 µM | OVCAR-4 > 100 µM | NCI-H226 > 100 µM | MDA-N > 10 µM | NCI/ADR-RES > 100 µM | OVCAR-3 > 100 µM | SF-268 > 100 µM | OVCAR-8 > 100 µM | SW-620 > 100 µM | RPMI-8226 > 100 µM | HT-29 > 100 µM | SNB-19 > 100 µM | CAKI-1 > 100 µM | SF-539 > 100 µM

COc1ccc(C(=O)C(C(=O)C(=O)Nc2ccc(Cl)c(Cl)c2)c2ccc(OC)cc2)cc1 (centres undefined)
inactive: SF-295 > 100 µM | SN12C > 100 µM | ACHN > 100 µM | OVCAR-4 > 100 µM | NCI-H226 > 100 µM | KM-20L2 > 100 µM | OVCAR-3 > 100 µM | SF-268 > 100 µM | OVCAR-8 > 100 µM | SW-620 > 100 µM | RPMI-8226 > 100 µM | HT-29 > 100 µM | SNB-19 > 100 µM | CAKI-1 > 100 µM | SF-539 > 100 µM

CC[C@@H]1CC[C@@H]2[C@H](CC[C@]3(C)[C@@H](OS(=O)(=O)c4ccc(C)cc4)CC[C@@H]23)[C@H]1CO
inactive: NCI-H522 > 100 µM | MDA-MB-231 > 100 µM | SF-295 > 100 µM | SN12C 78.5 µM | Hs-578T > 100 µM | ACHN > 100 µM | OVCAR-4 > 100 µM | NCI-H226 > 100 µM | MDA-N > 100 µM | NCI/ADR-RES > 100 µM | OVCAR-3 > 100 µM | SF-268 > 100 µM | OVCAR-8 > 100 µM | SW-620 > 100 µM | RPMI-8226 17 µM | HT-29 27.3 µM | SNB-19 > 100 µM | CAKI-1 > 100 µM | SF-539 81.5 µM

O=C1CCN2C(=Nc3cccc4cccc2c34)N1
inactive: SN12C > 100 µM | ACHN > 100 µM | OVCAR-4 > 100 µM | NCI-H226 > 100 µM | KM-20L2 > 100 µM | SF-268 > 100 µM | OVCAR-8 > 100 µM | SW-620 > 100 µM | RPMI-8226 > 100 µM | HT-29 > 100 µM | SNB-19 > 100 µM | SF-539 > 100 µM

CP(C)C.[Ag][I]
inactive: SF-295 > 100 µM | SN12C > 100 µM | ACHN > 100 µM | OVCAR-4 18.2 µM | NCI-H226 > 100 µM | KM-20L2 > 100 µM | OVCAR-3 > 100 µM | SF-268 > 100 µM | OVCAR-8 50 µM | SW-620 > 100 µM | RPMI-8226 > 100 µM | HT-29 > 100 µM | SNB-19 > 100 µM | CAKI-1 > 100 µM | SF-539 > 100 µM

COc1ccc2c(c1)-c1[nH]c3ccc(OC)cc3c1CC2
inactive: NCI-H522 4.55 µM | MDA-MB-231 17.3 µM | SF-295 13.1 µM | SN12C 14.8 µM | Hs-578T 13.4 µM | ACHN 19.6 µM | OVCAR-4 14.9 µM | NCI-H226 11.8 µM | MDA-N 14.7 µM | NCI/ADR-RES 11.4 µM | OVCAR-3 17.6 µM | SF-268 14.1 µM | OVCAR-8 13.9 µM | SW-620 22.4 µM | RPMI-8226 15.6 µM | HT-29 12.3 µM | SNB-19 14.8 µM | CAKI-1 18.8 µM | SF-539 18.2 µM

Cc1[nH]c2ccccc2c1C1=NO/C(=N\O)C(c2c(C)[nH]c3ccccc23)C1 (centres undefined)
inactive: SF-295 36.7 µM | SN12C 37 µM | ACHN 28.6 µM | OVCAR-4 39.1 µM | NCI-H226 37.7 µM | KM-20L2 23.8 µM | OVCAR-3 26.9 µM | SF-268 46 µM | OVCAR-8 56.5 µM | SW-620 57.5 µM | RPMI-8226 34.5 µM | HT-29 22.7 µM | SNB-19 72.8 µM | CAKI-1 36.1 µM | SF-539 23.6 µM

O=C(NCCCCCCCCNC(=O)c1cc(-c2ccccc2)nc2ccccc12)c1cc(-c2ccccc2)nc2ccccc12
inactive: NCI-H522 87.7 µM | MDA-MB-231 > 100 µM | SF-295 > 100 µM | SN12C > 100 µM | Hs-578T 28.7 µM | ACHN > 100 µM | OVCAR-4 > 100 µM | NCI-H226 > 100 µM | MDA-N > 100 µM | NCI/ADR-RES > 100 µM | OVCAR-3 > 100 µM | SF-268 68.9 µM | OVCAR-8 94 µM | SW-620 > 100 µM | RPMI-8226 > 100 µM | HT-29 > 100 µM | SNB-19 64.9 µM | CAKI-1 > 100 µM | SF-539 71.1 µM

Clc1cc(Cl)cc(/C=N/C23CC4CC(CC(C4)C2)C3)c1
inactive: NCI-H522 > 10 µM | MDA-MB-231 > 10 µM | SF-295 > 10 µM | SN12C > 10 µM | Hs-578T > 10 µM | ACHN > 10 µM | OVCAR-4 > 10 µM | NCI-H226 > 10 µM | MDA-N > 10 µM | NCI/ADR-RES > 10 µM | OVCAR-3 > 10 µM | SF-268 > 10 µM | OVCAR-8 > 10 µM | SW-620 > 10 µM | RPMI-8226 > 10 µM | HT-29 > 10 µM | SNB-19 > 10 µM | CAKI-1 > 10 µM | SF-539 > 10 µM

O=C(Cc1nc2ccccc2s1)C(=O)Nc1ccc(Cl)cc1Cl
inactive: SF-295 > 100 µM | SN12C > 100 µM | ACHN > 100 µM | OVCAR-4 > 100 µM | NCI-H226 77.6 µM | KM-20L2 > 100 µM | OVCAR-3 > 100 µM | SF-268 > 100 µM | OVCAR-8 > 100 µM | SW-620 > 100 µM | RPMI-8226 > 100 µM | HT-29 > 100 µM | SNB-19 > 100 µM | SF-539 > 100 µM

Oc1cccc2c1[nH]c1c(C3=C[C@@]4(O)CC/C=C\CCCCN5CC[C@@H]3[C@]3(CC6/C=C\CCCCN6[C@H]34)C5)nccc12 (some centres undefined)
inactive: MDA-MB-231 1.19 µM | SF-295 1.75 µM | Hs-578T 1.63 µM | NCI-H226 2.21 µM | NCI/ADR-RES 2.17 µM | SF-268 1.58 µM | OVCAR-8 1.15 µM | SW-620 1.43 µM | SNB-19 2.69 µM | CAKI-1 1.67 µM | SF-539 1.71 µM
active: NCI-H522 1.01 µM | SN12C 0.891 µM | ACHN 1.1 µM | OVCAR-4 0.679 µM | MDA-N 0.771 µM | OVCAR-3 0.893 µM | RPMI-8226 0.61 µM | HT-29 0.796 µM
